Measured values: ChEMBL document CHEMBL3046315, “Synthesis and Fungicidal Activity of New Thiophosphorylated Monoterpenoids and Related Compounds” (1996)

How the values were obtained:
Assay type in all cases: functional
Pythium [1] = assay: Fungicidal activity against Pythium sp. assessed as growth inhibition at 100 ppm after 5 days by agar dilution test; settings: 120 h, read-out: GI
Athelia rolfsii [2] = assay: Fungicidal activity against Athelia rolfsii assessed as growth inhibition at 100 ppm after 5 days by agar dilution test; settings: Agroathelia rolfsii, 120 h; read-out: GI
Athelia rolfsii [3] = assay: Fungicidal activity against Athelia rolfsii assessed as growth inhibition at 10 ppm after 5 days by agar dilution test; settings: Agroathelia rolfsii, 120 h; read-out: GI
Pythium [4] = assay: Fungicidal activity against Pythium sp. assessed as growth inhibition at 10 ppm after 5 days by agar dilution test; settings: 120 h, read-out: GI

Structure (SMILES) | inhibition of growth at 100 ppm (Pythium [1]) [%] | inhibition of growth at 100 ppm (Athelia rolfsii [2]) [%] | inhibition of growth at 10 ppm (Athelia rolfsii [3]) [%] | inhibition of growth at 10 ppm (Pythium [4]) [%]
Cc1ccc(C(C)C)cc1OP(=S)(Oc1cc(C(C)C)ccc1C)c1ccccc1 | 0 | 0 | – | –
CCOP(=S)(OCC)OCCc1ccccc1 | 68.8 | 95.1 | 42.3 | –
C=CCc1ccc(O)c(OC)c1 [EUGENOL] | 92.7 | 67.6 | 5.9 | 7.4
Cc1ccc(C(C)C)c(O)c1 [THYMOL] | 93 | 71 | 28.3 | 29.6
C=CCc1ccc(OP(=S)(OC)OC)c(OC)c1 | 44.9 | 90.5 | 38.5 | –
COP(=S)(OC)OCCC(C)CCC=C(C)C (configuration not stated) | 30 | 76.9 | 36.2 | –
CCOP(=S)(OCC)OCCC(C)CCC=C(C)C (configuration not stated) | 10.2 | 31.3 | – | –
COP(=S)(OC)Oc1cc(C)ccc1C(C)C | 67.4 | 84.3 | 29.3 | 32.5
CCOP(=S)(OCC)Oc1cc(C(C)C)ccc1C | 19.8 | 58.2 | – | –
COP(=S)(OC)OCCc1ccccc1 | 89.8 | 100 | 56.6 | 39.6
C=CCc1ccc(OP(=S)(OCC)Oc2ccc(CC=C)cc2OC)c(OC)c1 [DIEUGENOL PHOSPHOROTHIONATE] | 34.6 | 6.1 | – | –
CCOP(O)(=S)OCCC(C)CCC=C(C)C (configuration not stated) | 67 | 70.7 | 0 | 15.8
CCOP(=S)(Oc1cc(C)ccc1C(C)C)Oc1cc(C)ccc1C(C)C [DITHYMOL PHOSPHOROTHIONATE] | 58.4 | 30.3 | – | –
CC(C)=CCCC(C)CCO (configuration not stated) [CITRONELLOL] | 68.9 | 23.9 | – | 0
CCOP(=S)(OCCc1ccccc1)OCCc1ccccc1 [DIPHENETHYL ETHYL PHOSPHOROTHIONATE] | 23.3 | 33.4 | – | –
CCOP(O)(=S)OCCc1ccccc1 (configuration not stated) | 61.1 | 29.2 | – | –
OCCc1ccccc1 [PHENYLETHYL ALCOHOL] | 50.9 | 0 | – | –
Cc1ccc(C(C)C)c(OP(=S)(Oc2cc(C)ccc2C(C)C)c2ccccc2)c1 | 1.3 | 0 | – | –
CC(C)OP(=O)(OC(C)C)SCc1ccccc1 [IPROBENFOS] | 88.5 | 100 | 68.8 | 41.7
CCOP(=S)(OCC)Oc1cc(C)ccc1C(C)C | 52.9 | 56.8 | – | –
C=CCc1ccc(OP(O)(=S)OCC)c(OC)c1 (configuration not stated) | 37.3 | 24.7 | – | –
Cc1ccc(O)c(C(C)C)c1 [ISOTHYMOL] | 94.3 | 72.4 | 38 | 24.2
CCOP(O)(=S)Oc1cc(C(C)C)ccc1C (configuration not stated) [ETHYL ISOTHYMYL HYDROGENPHOSPHOROTHIONATE] | 71 | 54.9 | – | 10.4
C=CCc1ccc(OP(=S)(OCC)OCC)c(OC)c1 | 34.3 | 60.2 | – | –
COP(=S)(OC)Oc1cc(C(C)C)ccc1C | 61.1 | 85.2 | 37.5 | 22.8
CCOP(=S)(OCCC(C)CCC=C(C)C)OCCC(C)CCC=C(C)C (configuration not stated) [DICITRONELLYL PHOSPHOROTHIONATE] | 64.5 | 30.3 | – | –
CCOP(=S)(Oc1cc(C(C)C)ccc1C)Oc1cc(C(C)C)ccc1C [DIISOTHYMOL PHOSPHOROTHIONATE] | 67 | 36.8 | – | –
CCOP(O)(=S)Oc1cc(C)ccc1C(C)C (configuration not stated) | 55.7 | 46 | – | –
